Reference: publication PMC2801349 (Bioorganic & medicinal chemistry letters, 2009)

Experiments:
mGlu7 = mGlu7 (Homo sapiens, UniProt Q14831); test: Selectivity versus additional mGlus; format: cell-based
mGlu3 = mGlu3 (Homo sapiens, UniProt Q14832); test: Selectivity versus additional mGlus; format: cell-based
mGlu8 = mGlu8 (Homo sapiens, UniProt O00222); test: Selectivity versus additional mGlus; format: cell-based
mGlu2 = mGlu2 (Homo sapiens, UniProt Q14416); test: Selectivity versus additional mGlus; format: cell-based
mGlu4 = mGlu4 (Homo sapiens, UniProt Q14833); test: Selectivity versus additional mGlus; format: cell-based
rat mGlu5 = rat mGlu5 (Rattus norvegicus, UniProt P31424); test: Calcium mobilization mGlu5 assay; format: cell-based; settings: for fold reduction of mGlu5 potency, secondary amine to ether: 26 relative to 13, 29 relative to 4
EGFR = settings: read-out: EGFR autophosphorylation IC50; A431 cells; cited from earlier work

mGlu4, sequence (Q14833 33-912): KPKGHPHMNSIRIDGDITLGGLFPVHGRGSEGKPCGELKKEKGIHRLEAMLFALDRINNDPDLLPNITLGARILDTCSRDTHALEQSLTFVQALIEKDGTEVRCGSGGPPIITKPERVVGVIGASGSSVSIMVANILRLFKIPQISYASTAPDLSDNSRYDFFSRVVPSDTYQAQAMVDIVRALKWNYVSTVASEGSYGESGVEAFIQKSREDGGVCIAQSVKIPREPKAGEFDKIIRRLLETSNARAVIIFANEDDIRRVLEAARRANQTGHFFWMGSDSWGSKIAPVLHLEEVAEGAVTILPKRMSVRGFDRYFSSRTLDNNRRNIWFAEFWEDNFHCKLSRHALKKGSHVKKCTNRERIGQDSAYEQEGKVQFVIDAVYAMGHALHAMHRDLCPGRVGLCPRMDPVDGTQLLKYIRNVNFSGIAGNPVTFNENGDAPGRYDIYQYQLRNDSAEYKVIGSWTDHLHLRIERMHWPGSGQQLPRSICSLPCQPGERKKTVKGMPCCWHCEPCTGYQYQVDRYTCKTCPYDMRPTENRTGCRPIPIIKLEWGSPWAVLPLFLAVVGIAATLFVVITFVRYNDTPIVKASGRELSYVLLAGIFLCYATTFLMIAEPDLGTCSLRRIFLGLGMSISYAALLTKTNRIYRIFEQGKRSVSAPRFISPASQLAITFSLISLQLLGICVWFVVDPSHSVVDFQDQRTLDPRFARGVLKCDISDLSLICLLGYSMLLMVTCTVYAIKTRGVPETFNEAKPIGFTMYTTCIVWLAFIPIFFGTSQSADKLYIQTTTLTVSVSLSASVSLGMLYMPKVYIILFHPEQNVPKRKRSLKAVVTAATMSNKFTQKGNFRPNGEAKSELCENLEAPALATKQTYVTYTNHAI
rat mGlu5, sequence (P31424 21-1203): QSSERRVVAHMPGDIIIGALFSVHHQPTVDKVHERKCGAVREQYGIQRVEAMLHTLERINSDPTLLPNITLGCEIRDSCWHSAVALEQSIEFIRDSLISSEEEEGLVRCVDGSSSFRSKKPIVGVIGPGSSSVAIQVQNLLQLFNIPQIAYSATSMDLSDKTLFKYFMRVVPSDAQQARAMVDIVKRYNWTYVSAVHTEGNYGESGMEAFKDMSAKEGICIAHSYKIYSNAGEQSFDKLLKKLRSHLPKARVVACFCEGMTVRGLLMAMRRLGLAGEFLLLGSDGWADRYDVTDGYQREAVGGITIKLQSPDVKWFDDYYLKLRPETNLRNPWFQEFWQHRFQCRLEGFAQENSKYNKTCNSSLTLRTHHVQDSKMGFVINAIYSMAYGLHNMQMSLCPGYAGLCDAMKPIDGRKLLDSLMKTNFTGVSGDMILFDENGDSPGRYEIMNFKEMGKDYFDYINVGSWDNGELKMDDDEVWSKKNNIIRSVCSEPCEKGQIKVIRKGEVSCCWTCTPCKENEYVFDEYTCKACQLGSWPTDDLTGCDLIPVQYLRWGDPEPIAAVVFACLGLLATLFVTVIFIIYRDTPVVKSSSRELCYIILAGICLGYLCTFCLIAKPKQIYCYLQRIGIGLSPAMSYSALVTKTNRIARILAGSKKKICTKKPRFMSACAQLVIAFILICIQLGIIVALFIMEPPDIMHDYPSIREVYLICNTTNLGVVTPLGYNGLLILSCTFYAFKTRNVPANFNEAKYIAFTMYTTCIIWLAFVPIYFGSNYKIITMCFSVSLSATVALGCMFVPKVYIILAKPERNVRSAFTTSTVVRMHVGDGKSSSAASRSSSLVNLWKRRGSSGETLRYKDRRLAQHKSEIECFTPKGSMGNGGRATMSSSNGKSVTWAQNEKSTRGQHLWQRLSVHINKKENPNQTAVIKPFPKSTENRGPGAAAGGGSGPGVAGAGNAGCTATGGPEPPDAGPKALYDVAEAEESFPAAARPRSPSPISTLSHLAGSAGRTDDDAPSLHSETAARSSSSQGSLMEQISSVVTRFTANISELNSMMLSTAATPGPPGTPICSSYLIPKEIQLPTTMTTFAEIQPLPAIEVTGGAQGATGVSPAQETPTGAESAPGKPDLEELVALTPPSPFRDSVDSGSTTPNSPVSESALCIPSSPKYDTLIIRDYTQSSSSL
mGlu3, sequence (Q14832 23-879): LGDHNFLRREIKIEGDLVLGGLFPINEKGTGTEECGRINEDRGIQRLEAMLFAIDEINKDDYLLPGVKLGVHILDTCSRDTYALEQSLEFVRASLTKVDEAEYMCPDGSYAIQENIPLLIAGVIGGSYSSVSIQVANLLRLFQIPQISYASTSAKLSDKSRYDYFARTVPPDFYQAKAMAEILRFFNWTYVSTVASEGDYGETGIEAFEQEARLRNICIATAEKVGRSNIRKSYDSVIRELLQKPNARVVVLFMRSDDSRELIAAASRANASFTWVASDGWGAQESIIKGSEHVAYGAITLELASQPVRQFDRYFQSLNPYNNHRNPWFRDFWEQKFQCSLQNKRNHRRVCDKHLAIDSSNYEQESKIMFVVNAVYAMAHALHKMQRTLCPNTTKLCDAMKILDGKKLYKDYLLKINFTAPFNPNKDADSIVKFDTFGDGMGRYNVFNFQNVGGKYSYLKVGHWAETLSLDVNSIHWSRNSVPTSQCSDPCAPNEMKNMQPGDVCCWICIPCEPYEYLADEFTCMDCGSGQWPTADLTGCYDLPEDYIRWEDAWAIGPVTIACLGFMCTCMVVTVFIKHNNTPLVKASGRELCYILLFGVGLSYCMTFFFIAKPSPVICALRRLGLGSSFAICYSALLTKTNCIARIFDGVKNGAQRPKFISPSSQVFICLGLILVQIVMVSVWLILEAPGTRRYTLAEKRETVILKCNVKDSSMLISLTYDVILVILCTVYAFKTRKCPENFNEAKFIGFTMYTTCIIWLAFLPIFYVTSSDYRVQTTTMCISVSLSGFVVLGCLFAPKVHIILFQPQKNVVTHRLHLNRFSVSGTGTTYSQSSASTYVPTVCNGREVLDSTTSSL
mGlu2, sequence (Q14416 19-872): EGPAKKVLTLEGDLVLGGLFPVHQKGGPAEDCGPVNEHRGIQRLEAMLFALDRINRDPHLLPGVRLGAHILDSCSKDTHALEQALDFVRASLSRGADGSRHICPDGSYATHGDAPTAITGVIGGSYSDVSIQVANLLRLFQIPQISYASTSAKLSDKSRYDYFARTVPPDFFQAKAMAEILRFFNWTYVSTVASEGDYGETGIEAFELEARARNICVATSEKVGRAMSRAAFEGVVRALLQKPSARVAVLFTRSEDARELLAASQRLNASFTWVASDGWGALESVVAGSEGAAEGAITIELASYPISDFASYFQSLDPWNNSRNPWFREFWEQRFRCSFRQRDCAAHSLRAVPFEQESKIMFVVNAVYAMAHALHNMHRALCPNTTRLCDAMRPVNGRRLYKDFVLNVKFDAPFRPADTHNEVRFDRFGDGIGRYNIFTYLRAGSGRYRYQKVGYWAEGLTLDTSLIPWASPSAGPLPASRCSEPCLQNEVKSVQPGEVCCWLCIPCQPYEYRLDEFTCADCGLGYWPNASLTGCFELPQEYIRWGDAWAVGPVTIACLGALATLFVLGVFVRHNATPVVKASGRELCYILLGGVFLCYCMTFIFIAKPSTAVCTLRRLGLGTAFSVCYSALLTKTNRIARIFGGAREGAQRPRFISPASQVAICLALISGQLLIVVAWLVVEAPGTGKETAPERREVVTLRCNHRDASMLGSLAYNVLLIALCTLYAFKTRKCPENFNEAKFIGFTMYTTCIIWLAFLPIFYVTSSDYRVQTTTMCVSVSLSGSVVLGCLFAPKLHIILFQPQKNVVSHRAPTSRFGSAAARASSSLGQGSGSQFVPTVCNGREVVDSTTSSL
mGlu7, sequence (Q14831 35-915): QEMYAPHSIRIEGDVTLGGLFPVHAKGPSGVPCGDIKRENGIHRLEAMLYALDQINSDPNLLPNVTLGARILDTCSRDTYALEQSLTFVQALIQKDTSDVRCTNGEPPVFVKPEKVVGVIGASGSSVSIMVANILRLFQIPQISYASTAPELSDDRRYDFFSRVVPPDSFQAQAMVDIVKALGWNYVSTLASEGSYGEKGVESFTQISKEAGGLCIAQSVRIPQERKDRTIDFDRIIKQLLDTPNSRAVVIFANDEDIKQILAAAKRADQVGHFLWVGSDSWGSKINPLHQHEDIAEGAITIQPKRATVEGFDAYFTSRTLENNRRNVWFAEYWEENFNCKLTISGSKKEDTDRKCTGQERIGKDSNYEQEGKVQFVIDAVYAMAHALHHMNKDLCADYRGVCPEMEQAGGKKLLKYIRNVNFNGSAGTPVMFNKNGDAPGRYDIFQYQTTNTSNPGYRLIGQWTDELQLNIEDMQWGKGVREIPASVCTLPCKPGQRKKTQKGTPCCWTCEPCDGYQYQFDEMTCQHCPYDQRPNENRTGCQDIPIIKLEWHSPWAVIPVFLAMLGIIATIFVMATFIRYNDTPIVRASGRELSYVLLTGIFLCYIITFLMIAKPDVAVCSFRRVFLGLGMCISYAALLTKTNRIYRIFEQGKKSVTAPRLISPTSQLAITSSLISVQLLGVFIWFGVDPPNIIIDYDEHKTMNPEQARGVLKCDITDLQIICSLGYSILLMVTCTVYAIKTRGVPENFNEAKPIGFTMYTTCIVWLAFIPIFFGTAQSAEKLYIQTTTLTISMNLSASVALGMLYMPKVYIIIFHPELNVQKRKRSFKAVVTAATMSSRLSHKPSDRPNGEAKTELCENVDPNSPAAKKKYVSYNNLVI

Clc1cccc(Nc2ncnc3ccc(Br)cc23)c1 [Compound 1]
activity against mGlu7 (mGlu7): inactive
activity against mGlu3 (mGlu3): inactive
activity against mGlu8 (mGlu8): inactive
activity against mGlu2 (mGlu2): inactive
activity against mGlu4 (mGlu4): inactive

FC(F)(F)c1cccc(Nc2ncnc3ccc(Br)cc23)c1 [Compound 6]
fold less potent at mGlu5 than 5 (rat mGlu5; relative to 3-methylaniline 5): 7 fold

Clc1cccc(Nc2ncnc3ccc(Cl)cc23)c1 [Compound 9]
IC50 (EGFR): 2700 nM

Clc1ccc2ncnc(Nc3cccc(Br)c3)c2c1 [Compound 13]
activity against mGlu7 (mGlu7): inactive
activity against mGlu3 (mGlu3): inactive
activity against mGlu8 (mGlu8): inactive
activity against mGlu2 (mGlu2): inactive
activity against mGlu4 (mGlu4): inactive

Brc1cccc(Nc2nccc3ccc(Br)cc23)c1 [Compound 15]
fold reduction of mGlu5 activity relative to 4 (rat mGlu5; relative to 6-bromoquinazoline comparator 4): approximately 25 fold

Clc1ccc2ncnc(Oc3cccc(Br)c3)c2c1 [Compound 26]
fold reduction of mGlu5 potency, secondary amine to ether (rat mGlu5): more than 50 fold

Brc1cccc(Oc2ncnc3ccc(Br)cc23)c1 [Compound 29]
fold reduction of mGlu5 potency, secondary amine to ether (rat mGlu5): more than 50 fold

Fc1ccc2ncnc(Nc3cccc(Br)c3)c2c1 [Compound 32]
activity against mGlu7 (mGlu7): inactive
activity against mGlu3 (mGlu3): inactive
activity against mGlu8 (mGlu8): inactive
activity against mGlu2 (mGlu2): inactive
activity against mGlu4 (mGlu4): inactive

CCc1cccc(Nc2ncnc3ccc(F)cc23)c1 [Compound 36]
% Glu max (rat mGlu5; amplitude of response in the presence of 30 μM test compound as a percentage of maximal response (100 μM glutamate), average of n ≥ 3): weak potentiator
